Drawing on ChEMBL document CHEMBL3045342, “Quantitative relationship between insecticidal activity and Ca2+ pump stimulation by flubendiamide and its related compounds” (J Pestic Sci, 2009), this text covers Activity and LC50 for 12 molecules.

Values after ≈ are worked out from the molar mass of the structure shown. Active and inactive are the calls of the source. The rule behind the calls is not given here. Some results are limits rather than exact numbers.

In experiment [1] the target is Ryanodien receptor (Spodoptera exigua) (UniProt H9CNL0). The experiment is described as follows: Activation of ryanodine receptor in sixth-instar larvae of Spodoptera litura muscle membrane assessed as induction of Ca2+ pump at 10 uM after 30 min relative to control.
Experiment [2] shares this target. Nature of the experiment: Activation of ryanodine receptor in sixth-instar larvae of Spodoptera litura muscle membrane assessed as induction of Ca2+ pump at 1 uM after 30 min relative to control.
The target is the same in experiment [3]. The experiment is described as follows: Activation of ryanodine receptor in sixth-instar larvae of Spodoptera litura muscle membrane assessed as induction of Ca2+ pump at 0.1 uM after 30 min relative to control.
Another experiment deals with Spodoptera litura. The experiment is described as follows: Insecticidal activity against Spodoptera litura cabbage leaf disk after 4 to 7 days by leaf dipping method. Format: functional. Conditions: foliar.
In experiment [4] the target is Ryanodien receptor (Spodoptera exigua) (UniProt H9CNL0). Nature of the experiment: Activation of ryanodine receptor in sixth-instar larvae of Spodoptera litura muscle membrane assessed as induction of Ca2+ pump at 1 to 100 uM after 30 min.
The target is the same in experiment [5]. Nature of the experiment: Activation of ryanodine receptor in sixth-instar larvae of Spodoptera litura muscle membrane assessed as induction of Ca2+ pump at 0.1 uM after 30 min in presence of ryanodine.
For experiment [6] the target is unchanged. The experiment is described as follows: Activation of ryanodine receptor in sixth-instar larvae of Spodoptera litura muscle membrane assessed as induction of Ca2+ pump at 0.4 uM after 30 min relative to control.
Experiment [7] shares this target. Nature of the experiment: Activation of ryanodine receptor in sixth-instar larvae of Spodoptera litura muscle membrane assessed as induction of Ca2+ pump at 2 uM after 30 min relative to control.

For the molecule `C/C=C(/C)C(=O)O[C@H]1C(C)=C2[C@H]([C@@H]1OC(=O)CCCCCCC)[C@@](C)(OC(C)=O)C[C@H](OC(=O)CCC)[C@@]1(O)[C@H]2OC(=O)[C@@]1(C)O`, the Activity in experiment [1] amounted to 31%; in experiment [2], 31.7%; in experiment [3], 67.8%.

On to `Cc1cc(OC(F)F)ccc1NC(=O)c1cccc(I)c1C(=O)NC(C)C`, for which, in the experiment with Spodoptera litura, the 50% lethal concentration (LC50) – broadly, the concentration that kills 50% of the test population – was 1 µg/mL (≈ 2.05 µM).

In the case of `CC(C)[C@@]1(O)[C@@H](OC(=O)c2cc[nH]c2)[C@@]2(O)[C@]3(C)C[C@@]4(O)O[C@@]5([C@H](O)[C@@H](C)CC[C@]35O)[C@@]2(O)[C@@]41C`, the outcome in experiment [4] was Active.

In turn, `Cc1cc(C(F)(C(F)(F)F)C(F)(F)F)ccc1NC(=O)c1cccc(I)c1C(=O)NC(C)C` yielded an LC50 in the experiment with Spodoptera litura of 0.1 µg/mL (≈ 0.169 µM).

As for `Cc1cc(OC(F)(F)F)ccc1NC(=O)c1cccc(I)c1C(=O)NC(C)C`, the LC50 in the experiment with Spodoptera litura turned out to be 1 µg/mL (≈ 1.98 µM).

Consider `CSCC(C)(C)NC(=O)c1c(I)cccc1C(=O)Nc1ccc(C(F)(C(F)(F)F)C(F)(F)F)cc1C`, for which the LC50 in the experiment with Spodoptera litura was determined as 0.03 µg/mL (≈ 0.0461 µM).

For `Cc1cc(Cl)ccc1NC(=O)c1cccc(Br)c1C(=O)NC(C)C`, the LC50 in the experiment on Spodoptera litura was determined as 10 µg/mL (≈ 24.4 µM).

In the experiment on Spodoptera litura, `Cc1cc(C(F)(C(F)(F)F)C(F)(F)F)ccc1NC(=O)c1cccc(I)c1C(=O)NC(C)(C)CS(C)(=O)=O` [FLUBENDIAMIDE] came in with a 50% lethal concentration (LC50) of 0.03 µg/mL (≈ 0.044 µM). For the same molecule, the outcome in experiment [5] was inactive.

With `CNc1ccc2oc(C[C@H]3O[C@@]4(CC[C@H]3C)O[C@H]([C@H](C)C(=O)c3ccc[nH]3)[C@H](C)C[C@H]4C)nc2c1C(=O)O`, the Activity in experiment [6] was 158%; in experiment [7], 358%.

The molecule `Cc1cc(C(F)(F)C(F)(F)F)ccc1NC(=O)c1cccc(I)c1C(=O)NC(C)C` came in with an LC50 in the experiment with Spodoptera litura of 0.3 µg/mL (≈ 0.555 µM).

In the case of `CSCC(C)(C)NC(=O)c1c(C(=O)Nc2ccc(C(F)(C(F)(F)F)C(F)(F)F)cc2C)cc(Cl)c(Cl)c1I`, the median lethal concentration (LC50) in the experiment on Spodoptera litura was more than 10 µg/mL.

`Cc1cc(Cl)ccc1NC(=O)c1ccccc1C(=O)NC(C)C`: in the experiment with Spodoptera litura, the LC50 was 10 µg/mL (≈ 30.2 µM).
